From patent publication US12281122B1, “PI3K inhibitors” (Cogent Biosciences, Inc., priority 2023, dated 2025)

What was measured:
[1] = system: T47D (PI3Kα-H1047R) cell line; assay: HTRF phospho-AKT(S473) cell assay in T47D cells; format: cell-based, human
Summary of the method: (§1)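 HTRF read-out of phospho-AKT(S473) in lysates gave IC50 values after 2 h compound exposure at 37° C. Dose series was 12 points at 1:3, topping at 5 μM for T47D and 10 μM for SKBR3. Only SKBR3 received 70 ng/ml PDGF-BB during the last 15 minutes.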

[2] = system: SKBR3 (PI3Kα-Wild Type) cell line; assay: HTRF phospho-AKT(S473) cell assay in SKBR3 cells; format: cell-based, human
Summary of the method: as §1

[3] = Homo sapiens; HTRF phospho-AKT(S473), T47D (PI3Kα-H1047R) cells, 2 hours compound incubation
[4] = Homo sapiens, SK-BR-3; HTRF phospho-AKT(S473), SKBR3 (PI3Kα-Wild Type) cells, 2 hours compound incubation, PDGF-BB stimulated
[5] = Homo sapiens; T47D (PI3Kα-H1047R) cells, HTRF phospho-AKT(S473), 2 hours compound incubation
[6] = Homo sapiens, SK-BR-3; SKBR3 (PI3Kα-Wild Type) cells, HTRF phospho-AKT(S473), 2 hours compound incubation, PDGF-BB stimulated

Row | Structure (SMILES) | IC50 [1, 3] [nM] | IC50 [2, 4] [nM] | IC50 [1, 5] [nM] | IC50 [2, 6] [nM]
1 | Cc1cc([C@@H](C)Nc2ccc(Cl)nc2C(=O)NS(C)(=O)=O)c2nc(N3Cc4cn(C5CC(F)(F)C5)nc4C3)n(C)c(=O)c2c1 [Compound 693, (R)-6-chloro-3-((1-(2-(2-(3,3-difluorocyclobutyl)-2,6-dihydropyrrolo[3,4-c]pyrazol-5(4H)-yl)-3,6-dimethyl-4-oxo-3,4-dihydroquinazolin-8-yl)ethyl)amino)-N-(methylsulfonyl) picolinamide] | < 250 | 1000 to 5000 | – | –
2 | Cc1cc([C@@H](C)Nc2ccc(Cl)nc2C(=O)NS(C)(=O)=O)c2nc(N3CCc4nn(C5COC5)cc4C3)n(C)c(=O)c2c1 [Compound 334, (R)-6-chloro-3-((1-(3,6-dimethyl-2-(2-(oxetan-3-yl)-2,4,6,7-tetrahydro-5H-pyrazolo[4,3-c]pyridin-5-yl)-4-oxo-3,4-dihydroquinazolin-8-yl)ethyl)amino)-N-(methylsulfonyl) picolinamide] | – | – | < 250 | 1000 to 5000
3 | C[C@@H](Nc1ccc(Cl)nc1C(=O)NS(C)(=O)=O)c1cc(C2CC2)cc2c(=O)n(C)c(N3C[C@@H]4[C@H](C3)[C@H]4c3ccn(C)n3)nc12 [Compound 382, 6-chloro-3-(((R)-1-(6-cyclopropyl-3-methyl-2-((1R,5S,6R)-6-(1-methyl-1H-pyrazol-3-yl)-3-azabicyclo[3.1.0]hexan-3-yl)-4-oxo-3,4-dihydroquinazolin-8-yl)ethyl)amino)-N-(methylsulfonyl) picolinamide] | – | – | 250 to 500 | 1000 to 5000
4 | Cc1cc([C@@H](C)Nc2ccc(Cl)nc2C(=O)NS(C)(=O)=O)c2nc(N3CCC(n4ncc5ccncc54)CC3)n(C)c(=O)c2c1 [Compound 258] | – | – | < 250 | 1000 to 5000
5 | Cc1cc([C@@H](C)Nc2ccc(Cl)nc2C(=O)NS(C)(=O)=O)c2nc(N3C[C@H]4C[C@@H]3CN4c3cnn(C)c3)n(C)c(=O)c2c1 [Compound 233, 6-chloro-3-(((R)-1-(3,6-dimethyl-2-((1R,4R)-5-(1-methyl-1H-pyrazol-4-yl)-2,5-diazabicyclo[2.2.1]heptan-2-yl)-4-oxo-3,4-dihydroquinazolin-8-yl)ethyl)amino)-N-(methylsulfonyl) picolinamide] | – | – | < 250 | 1000 to 5000
6 | Cc1cc([C@@H](C)Nc2ccc(Cl)nc2C(=O)NS(C)(=O)=O)c2nc([C@H]3CCCN(c4nccc(C)n4)C3)n(C)c(=O)c2c1 (mixture of isomers) [Compound 756, 6-chloro-3-(((R)-1-(3,6-dimethyl-2-((RS)-1-(4-methylpyrimidin-2-yl)piperidin-3-yl)-4-oxo-3,4-dihydroquinazolin-8-yl)ethyl)amino)-N-(methylsulfonyl) picolinamide] | 500 to 1000 | ≥ 5000 | – | –
7 | Cc1cc([C@@H](C)Nc2ccc(Cl)nc2C(=O)NS(C)(=O)=O)c2nc(-c3ccc(N(C)C)nc3)n(C)c(=O)c2c1 [Compound 349, (R)-6-chloro-3-((1-(2-(6-(dimethylamino)pyridin-3-yl)-3,6-dimethyl-4-oxo-3,4-dihydroquinazolin-8-yl)ethyl)amino)-N-(methylsulfonyl) picolinamide] | – | – | < 250 | 1000 to 5000
8 | Cc1cc([C@@H](C)Nc2ccc(Cl)nc2C(=O)NS(C)(=O)=O)c2nc(N3C[C@@H]4[C@H](C3)[C@H]4c3nn(C)cc3Cl)n(C)c(=O)c2c1 [Compound 401, 6-chloro-3-(((R)-1-(2-((1R,5S,6R)-6-(4-chloro-1-methyl-1H-pyrazol-3-yl)-3-azabicyclo[3.1.0]hexan-3-yl)-3,6-dimethyl-4-oxo-3,4-dihydroquinazolin-8-yl)ethyl)amino)-N-(methylsulfonyl) picolinamide] | – | – | 250 to 500 | ≥ 5000
9 | Cc1cc([C@@H](C)Nc2ccc(Cl)nc2C(=O)NS(C)(=O)=O)c2nc(N3CCc4nn(CC5CC5)cc4C3)n(C)c(=O)c2c1 [Compound 279, (R)-6-chloro-3-((1-(2-(2-(cyclopropylmethyl)-2,4,6,7-tetrahydro-5H-pyrazolo[4,3-c]pyridin-5-yl)-3,6-dimethyl-4-oxo-3,4-dihydroquinazolin-8-yl)ethyl)amino)-N-(methylsulfonyl) picolinamide] | – | – | < 250 | 1000 to 5000
10 | Cc1cc([C@@H](C)Nc2ccc(Cl)nc2C(=O)NS(C)(=O)=O)c2nc(N3CCC[C@H](c4cnc(C)nc4)C3)n(C)c(=O)c2c1 (relative stereo) [Compound 646, 6-chloro-3-(((R)-1-(3,6-dimethyl-2-((R*)-3-(2-methylpyrimidin-5-yl)piperidin-1-yl)-4-oxo-3,4-dihydroquinazolin-8-yl)ethyl)amino)-N-(methylsulfonyl) picolinamide] | < 250 | ≥ 5000 | – | –
11 | Cc1cc([C@@H](C)Nc2ccc(Cl)nc2C(=O)NS(C)(=O)=O)c2nc(N3CCN(c4nc(C)ncc4Cl)CC3)n(C)c(=O)c2c1 [Compound 727, (R)-6-chloro-3-((1-(2-(4-(5-chloro-2-methylpyrimidin-4-yl)piperazin-1-yl)-3,6-dimethyl-4-oxo-3,4-dihydroquinazolin-8-yl)ethyl)amino)-N-(methylsulfonyl) picolinamide] | 250 to 500 | 1000 to 5000 | – | –
12 | Cc1cc([C@@H](C)Nc2ccc(Cl)nc2C(=O)NS(C)(=O)=O)c2nc(N3CC[C@H](N(C)c4ncc(Cl)cn4)C3)n(C)c(=O)c2c1 [Compound 740, 6-chloro-3-(((R)-1-(2-((S)-3-((5-chloropyrimidin-2-yl)(methyl)amino)pyrrolidin-1-yl)-3,6-dimethyl-4-oxo-3,4-dihydroquinazolin-8-yl)ethyl)amino)-N-(methylsulfonyl) picolinamide] | 250 to 500 | ≥ 5000 | – | –
13 | Cc1cc([C@@H](C)Nc2ccc(Cl)nc2C(=O)NS(C)(=O)=O)c2nc(N3CCC[C@@H](Oc4cnc(C)cn4)C3)n(C)c(=O)c2c1 [Compound 376, 6-chloro-3-(((R)-1-(3,6-dimethyl-2-((R)-3-((5-methylpyrazin-2-yl)oxy)piperidin-1-yl)-4-oxo-3,4-dihydroquinazolin-8-yl)ethyl)amino)-N-(methylsulfonyl) picolinamide] | – | – | 250 to 500 | ≥ 5000
14 | Cc1cc([C@@H](C)Nc2ccc(Cl)nc2C(=O)NS(C)(=O)=O)c2nc(N3C[C@@H]4C[C@H]3CN4c3ncc(Cl)cn3)n(C)c(=O)c2c1 [Compound 667, 6-chloro-3-(((R)-1-(2-((1S,4S)-5-(5-chloropyrimidin-2-yl)-2,5-diazabicyclo [2.2.1]heptan-2-yl)-3,6-dimethyl-4-oxo-3,4-dihydroquinazolin-8-yl)ethyl)amino)-N-(methylsulfonyl) picolinamide] | 500 to 1000 | ≥ 5000 | – | –
15 | Cc1cc([C@@H](C)Nc2ccc(Cl)nc2C(=O)NS(C)(=O)=O)c2nc(N3C[C@H]4C[C@@H]3CN4c3nccnc3C)n(C)c(=O)c2c1 [Compound 624, 6-chloro-3-(((R)-1-(3,6-dimethyl-2-((1R,4R)-5-(3-methylpyrazin-2-yl)-2,5-diazabicyclo [2.2.1]heptan-2-yl)-4-oxo-3,4-dihydroquinazolin-8-yl)ethyl)amino)-N-(methylsulfonyl) picolinamide] | 250 to 500 | ≥ 5000 | – | –
16 | Cc1cc([C@@H](C)Nc2ccc(Cl)nc2C(=O)NS(C)(=O)=O)c2nc(N3CCC(c4nc(C)no4)CC3)n(C)c(=O)c2c1 [Compound 595, (R)-6-chloro-3-((1-(3,6-dimethyl-2-(4-(3-methyl-1,2,4-oxadiazol-5-yl)piperidin-1-yl)-4-oxo-3,4-dihydroquinazolin-8-yl)ethyl)amino)-N-(methylsulfonyl) picolinamide] | < 250 | 1000 to 5000 | – | –
17 | Cc1cc([C@@H](C)Nc2ccc(Cl)nc2C(=O)NS(C)(=O)=O)c2nc(N3CCc4nn(CC5COC5)cc4C3)n(C)c(=O)c2c1 [Compound 289, (R)-6-chloro-3-((1-(3,6-dimethyl-2-(2-(oxetan-3-ylmethyl)-2,4,6,7-tetrahydro-5H-pyrazolo[4,3-c]pyridin-5-yl)-4-oxo-3,4-dihydroquinazolin-8-yl)ethyl)amino)-N-(methylsulfonyl) picolinamide] | – | – | < 250 | ≥ 5000
18 | Cc1cc([C@@H](C)Nc2ccc(Cl)nc2C(=O)NS(C)(=O)=O)c2nc(N3CC[C@H](c4ccnc(C)n4)C3)n(C)c(=O)c2c1 (relative stereo) [Compound 599, 6-chloro-3-(((R)-1-(3,6-dimethyl-2-((R*)-3-(2-methylpyrimidin-4-yl)pyrrolidin-1-yl)-4-oxo-3,4-dihydroquinazolin-8-yl)ethyl)amino)-N-(methylsulfonyl) picolinamide] | 250 to 500 | ≥ 5000 | – | –
19 | Cc1cc([C@@H](C)Nc2ccc(Cl)nc2C(=O)NS(C)(=O)=O)c2nc(N3CCC(c4cc(C)n(C)n4)CC3)n(C)c(=O)c2c1 [Compound 287, (R)-6-chloro-3-((1-(2-(4-(1,5-dimethyl-1H-pyrazol-3-yl)piperidin-1-yl)-3,6-dimethyl-4-oxo-3,4-dihydroquinazolin-8-yl)ethyl)amino)-N-(methylsulfonyl) picolinamide] | – | – | < 250 | 1000 to 5000
20 | Cc1cc([C@@H](C)Nc2ccc(Cl)nc2C(=O)NS(C)(=O)=O)c2nc(N3C[C@@H]4[C@H](C3)[C@H]4c3cn(CC(F)(F)F)nn3)n(C)c(=O)c2c1 [Compound 478, 6-chloro-3-(((R)-1-(3,6-dimethyl-4-oxo-2-((1R,5S,6R)-6-(1-(2,2,2-trifluoroethyl)-1H-1,2,3-triazol-4-yl)-3-azabicyclo[3.1.0]hexan-3-yl)-3,4-dihydroquinazolin-8-yl)ethyl)amino)-N-(methylsulfonyl) picolinamide] | < 250 | 1000 to 5000 | – | –
